According to patent US7678884B2, “Biologically active peptide and agent containing the same” (Seikagaku Corporation, priority 2003, dated 2010):
Ends that are not written are not given here.

What was measured:
[1] = system: Human-derived Periodontal Ligament Cells (PDL Cells); test: Cell growth of PDL cells (cell number by Coulter counter); type: cell-based; conditions: peptide added at various concentrations to DMEM containing 2% FBS; counted on Days 4 and 6; versus control medium (FIG. 1, FIG. 2)
Source text: PDL cells were isolated from a healthy premolar carefully extracted from a patient who visited a hospital to extract teeth for orthodontic treatment so that periodontal ligament should not be damaged as far as possible, and cultured. The extracted tooth was washed with sterilized physiological saline and phosphate-buffered saline (PBS, Nissui), and then periodontal ligament existing in ⅓ of the tooth root at the center was scraped off with a sharp knife. The pieces of periodontal ligament were transferred to a plastic plate and minced into small fragments using a round-blade knife. Tissue fragments were left standing in a plate having a diameter of 35 mm (FALCON) and cultured in Dulbecco's modified Eagle medium (DMEM, Nissui) containing antibiotics (100 U/ml of penicillin G, 100 μg/ml of streptomycin and 250 μg/ml of gentamicin) and 10% fetal bovine serum (FBS, EQUITECH-BIO) at 37° C. under 5% CO2. […]
The PDL cells prepared in (1) were inoculated on a 24-well culture plate (FALCON) at a ratio of 5×10^3 cells/well. […] On Days 4 and 6, the cells were separated and dispersed by using PBS containing 0.08% trypsin and 0.04% ethylenediaminetetraacetic acid (EDTA), and cell number was counted by using a Coulter counter (COULTER Z1, Coulter Electronics). […]

OCCM30 cells = test: Cell differentiation of OCCM30 cells (ALP activity); type: cell-based, mouse; conditions: DMEM containing 2% FBS; versus control (FIG. 11)
Procedure: As mouse-derived cementoblasts, cells of the OCCM30 cell strain (Bone, 1999 Jul., 25(1):39-47) were used. This cell strain was provided from Professor Somerman of School of Dentistry University of Washington.
As an index of cell differentiation, alkaline phosphatase (ALP) activity of cells was determined. Cells were inoculated in a 24-well culture plate at a ratio of 5×10^3 cells/well, added with the peptide (a) at various concentrations and cultured in DMEM or αMEM containing 2% FBS. One week after the time point when the cells reached a confluent state, ALP activity was determined by the following enzymochemical method (Bessey-Lowry method, Bessey O A, Lowry O H and Brock M J, A method for the rapid determination of alkaline phosphatase with five cubic millimeter of serum, J. Biol. Chem., 164:321-329, 1946).
The cultured cells were washed with PBS and then disrupted in 10 mM Tris-HCl buffer (pH 7.4, 500 μl) for 40 seconds by using an ultrasonic homogenizer (Handy Sonic model UR-20P, Tomy Seiko) and stirred. Then, 25 μl of this sample liquid was added to 125 μl of ALP buffer (0.1 M carbonate buffer, pH 9.8, 6.7 mM p-nitrophenyl phosphate, 2 mM MgCl2) and incubated at 37° C. for 30 minutes. The reaction was terminated by addition of 125 μl of 0.2 N NaOH, and absorbance was measured at 405 nm by using a microplate reader (Model 550, Bio-Rad Laboratories). […]

[2] = system: periodontal disease model; test: Periodontal disease model (histology of defect at first molar of the upper jaw); type: in vivo, Wistar rats; conditions: one month after operation
Procedure: The following experiment was performed in order to examine action of the peptide of the present invention on a periodontal disease model. • (i) Preparation of Periodontal Disease Model 8-week old Wistar rats were systemically anesthetized with an ethyl carbamate solution in a volume of 0.5 ml per 100 g of body weight, and then the mesial gingiva of each first molar on the upper jaw was vertically incised. The gingival periosteal flap was reflected to expose the mesial alveolar bone of the first molar. Then, a defect having a length of about 2 mm and a buccolingual diameter of about 1 mm was formed from the alveolar bone crest of the same site towards the root apex side by using a fissure bur under pouring saline to expose the mesial root face of the first molar on the upper jaw. The root cementum and surface of dentin was removed together with the periodontal ligament attached to the exposed root face so as to make a shallow cavity. • (ii) Test Method At the aforementioned defect, a sample prepared with 1% PBS solution of sodium hyaluronate (weight average molecular weight: 900,000) was applied on the exposed root face, and the gingival periosteal flap was repositioned and sutured. By using a group of the animals applied with 1% PBS solution of sodium hyaluronate containing the peptide (a) (concentration of the peptide (a): 0.3 mg/ml) as the peptide group, a group of the animals applied with 1% PBS solution of sodium hyaluronate alone as the hyaluronic acid group, and a group of the animals applied with no substance before suture of the gingival periosteal flap for restoration as the control group, healing conditions were compared one month after the operation. The animals were euthanized with chloroform, and each experimental site was excised. The excised upper jaw bone was fixed by immersion in neutrally buffered formalin for 1 day and then decalcified over 2 days by using a rapid decalcifying solution (K-CX). The specimen was embedded in paraffin in a conventional manner, then a mesiodistal section having a thickness of […] and parallel to the longitudinal axis of the tooth root was prepared at the experiment site and stained with hematoxylin/eosin. Adhesion condition of periodontal tissue to the exposed surface of the tooth root at the defective site and the position of the apex of the alveolar bone were evaluated light microscopically. • (iii) Results (Findings)

[3] = peptide (a) 0.3 mg/ml in 1% PBS solution of sodium hyaluronate

## VPAFPRQPGTPGVASL [Peptide (a)]
[1]
  PDL cell number (cell growth promoting effect): significantly increased
OCCM30 cells
  cell differentiation promoting effect (ALP activity) on OCCM30 cells: significant cell differentiation promoting effect
[2]; peptide (a) 0.3 mg/ml in 1% PBS solution of sodium hyaluronate applied on exposed root face, versus control and hyaluronic acid groups
  down-growth of the epithelium: observed to a less extent
[2]; [3]
  deposition of cementum with Sharpey's fibers on the exposed root surface: deposition of cementum with Sharpey's fibers, that is, new connective tissue attachment formation, was observed
  separation between the gingiva and the tooth root: no such separation was observed
[2]; peptide (a) 0.3 mg/ml in 1% PBS solution of sodium hyaluronate, versus control and hyaluronic acid groups
  bone regeneration at the periodontal defect: more active than in the other two groups
